Data reported in PubChem BioAssay (NCI).
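Method: 48-hour compound exposure of cells in 96-well plates, five concentrations, linear interpolation of endpoints. Abbreviation: GI50, concentration required for 50% inhibition of growth. TGI is the concentration that stops growth completely.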

Key:
Test in all cases: growth of human tumour cells (NCI), 48 h
[1] = test system: HOP-92 NSCLC
[2] = test system: OVCAR-3 ovarian
[3] = test system: SF-295 CNS
[4] = test system: SK-MEL-2 melanoma
[5] = test system: COLO 205 colon
[6] = test system: SK-MEL-5 melanoma
[7] = test system: ACHN renal
[8] = test system: SW-620 colon
[9] = test system: NCI-H23 lung
[10] = test system: MALME-3M melanoma

| SMILES | GI50 [1] | TGI [1] | GI50 [2] | TGI [2] | GI50 [3] | TGI [3] | GI50 [4] | TGI [4] | GI50 [5] | TGI [5] | GI50 [6] | TGI [6] | GI50 [7] | TGI [7] | GI50 [8] | TGI [8] | TGI [9] | TGI [10] | GI50 [9] | GI50 [10] |
| --- | --- | --- | --- | --- | --- | --- | --- | --- | --- | --- | --- | --- | --- | --- | --- | --- | --- | --- | --- | --- |
| CC(C)c1ccc2c(c1)CC[C@@H]1[C@@](C)(C(=O)O)CCC[C@]21C | 20.7 µM | 76.8 µM | 1.8 µM | 13.8 µM | 3.74 µM | 17.1 µM | 2.91 µM | 16.1 µM | 3.23 µM | 7.83 µM | 5.02 µM | 16.5 µM | 11.4 µM | 23.5 µM | 10.2 µM | 22.8 µM |  |  |  |  |
| CS(=O)(=O)Nc1ccc2c(c1)oc(=O)c1ccccc12 |  | > 100 µM |  | > 100 µM |  | > 100 µM |  | > 100 µM |  | > 100 µM |  | > 100 µM |  | > 100 µM |  | > 100 µM | > 100 µM | > 100 µM |  |  |
| CCOC(=O)C1(C#N)C(c2ccccc2)CC(O)(c2ccc(OC)cc2)C(C(=O)c2ccc(OC)cc2)C1c1ccccc1 (stereo unspecified) |  |  |  | > 100 µM |  | > 100 µM |  | > 100 µM |  | > 100 µM |  | > 100 µM |  | > 100 µM |  | > 100 µM | > 100 µM | > 100 µM |  |  |
| CN(C)c1ccc(C(C=C2c3ccccc3Sc3ccccc32)=C(C#N)C#N)cc1 |  |  |  | > 100 µM |  | > 100 µM |  | > 100 µM |  | > 100 µM |  | > 100 µM |  | > 100 µM |  | > 100 µM | > 100 µM | > 100 µM |  |  |
| C=C1C(=O)OC2CCN3CC=C(COC(=O)C(C)(O)C4(CO4)C1C)C23 (stereo unspecified) |  | > 100 µM |  |  |  | > 100 µM |  | > 100 µM |  | > 100 µM |  | > 100 µM |  | > 100 µM |  | > 100 µM | > 100 µM | > 100 µM |  |  |
| C=C(CNCc1ccccc1)c1ccc(C(=O)Nc2ccccc2N)cc1 | 15.1 µM | 55.9 µM | 7.31 µM | 34.2 µM | 7.28 µM | 37 µM | 5.49 µM | > 100 µM | 4.9 µM | 38.5 µM | 4.66 µM | 17.4 µM | 9.79 µM | 84.3 µM | 8.5 µM | > 100 µM | 8.23 µM |  | 2.37 µM |  |
| CC(C)(C)CC(C)(C)c1cc2c(O)c(c1)Cc1cc(C(C)(C)CC(C)(C)C)cc(c1O)Cc1cc(C(C)(C)CC(C)(C)C)cc(c1O)Cc1cc(C(C)(C)CC(C)(C)C)cc(c1O)C2 |  | > 100 µM |  | > 100 µM |  | > 100 µM |  | > 100 µM |  | > 100 µM |  | > 100 µM |  | > 100 µM |  | > 100 µM | > 100 µM | > 100 µM |  |  |
| O=C1/C(=C/c2ccc(Br)cc2)COc2ccc(O)c(O)c21 | 1.26 µM | 5.49 µM | 0.493 µM | 1.56 µM | 2.57 µM | 6.83 µM | 1.69 µM | 4.53 µM | 1.53 µM | 3.18 µM | 1.4 µM | 2.84 µM | 0.828 µM | 2.09 µM | 0.671 µM | 2.22 µM | 3.65 µM | 3.35 µM | 1.62 µM | 1.11 µM |
| O=C(Nc1ccc(Cl)cc1F)c1ccccc1O | 1.42 µM | 4.59 µM | 2.98 µM | > 100 µM | 2.35 µM | 5.87 µM | 2.3 µM | 6.59 µM | 5.7 µM | 41.2 µM | 1.69 µM | 3.48 µM | 2.36 µM | 7.54 µM | 3.26 µM | > 100 µM | 6.13 µM | 8.8 µM | 2.12 µM | 2.26 µM |
